System: calvarial skull bones (hemicalvaria)
Assay: Calvarial skull assay (bone organ culture)
Assay type: cell-based, CD1 mice
Description: CD1 pups are harvested around birth from CD1 female mice (received from Janvier (Le Genest St Isle, France) when they were 11 days pregnant). Pups are decapitated and the calvarial skull is dissected and split into 2 hemicalvaria. Hemicalvaria are blotted using sterile gauze, weighed and cultured in 24 well plates (MEMalpha or BGJb-Fitton-Jackson medium containing 50 μg/ml L-ascorbic acid (Sigma, A-4034), 5 mM β-glycerophosphate (Sigma, G-9891) and Penicillin-Streptomycin (Invitrogen Cat # 15140-122)). Small molecules (ligands, agonists, antagonists) are tested in at least three-fold at a minimum of 3 concentrations. Each small molecule is added to the medium on day 0 and added again when refreshing the medium (every 2-3 days). Three to 16 days after the start of the experiment, skulls are weighed again after blotting them dry using sterile gauze. The weight difference is calculated, expressed as percent weight change and the mean and standard deviations (SD) are calculated for the triplicate measurements. Data are analyzed using the Student's t-test.
The formation of new osteoid is analyzed histologically as follows: hemicalvaria are fixed in 10% buffered formalin for at least 2 days, decalcified in 10% EDTA overnight, processed through graded alcohols and embedded in paraffin wax. Three to 10 μm sections are prepared of the calvaria and stained with hematoxylin and eosin (H&E). Healthy cells, dead cells, old and new bone, and collagen are identified by their distinctive morphology and colouring observed after H&E staining. The surfaces taken by these are measured stereologically (μm^2 readout) and termed Osteoblast area, Debris area, Native and New bone area, Collagen area and Total area (sum of the previous 5 areas), respectively. In addition, the thickness (μm readout) is measured at 8 positions, evenly spaced over the section.
The histological readout of the calvarial skull assay is developed using known osteogenic agents. Hemicalvaria were treated with recombinant human parathyroid hormone (rhPTH).
T0901317 is added to the culture medium of the dissected hemicalvaria at the day of dissection at several doses (19.5, 78.1 and 313 nM), in fourfold. The concentration of the solvent (vehicle), DMSO, is fixed at a final concentration of 0.05%. The medium, containing T0901317 or vehicle control is refreshed every 2-3 days. Hemicalvaria are harvested 7 days after the initiation of the experiment and subjected to the histological analysis described above.

[1] = 19.5, 78.1 and 313 nM, 7 days, histology (H&E)

With `O=S(=O)(c1ccccc1)N(CC(F)(F)F)c1ccc(C(O)(C(F)(F)F)C(F)(F)F)cc1` [T0901317, N-(2,2,2-trifluoroethyl)-N-[4-[2,2,2-trifluoro-1-hydroxy-1-(trifluoromethyl)ethyl]phenyl]-benzenesulfonamide] as the compound, how does the “dose-response activity towards areas of osteoblast” value (19.5, 78.1 and 313 nM, 7 days) read?
Its value is “Dose-response activity of the compound is observed”.

And the “dose-response activity towards thickness” value (19.5, 78.1 and 313 nM, 7 days)?
Its value is “Dose-response activity of the compound is observed”.

And the “dose-response activity towards total area (sum of all areas measured)” value (19.5, 78.1 and 313 nM, 7 days)?
Its value is “Dose-response activity of the compound is observed”.

And the areas of collagen [1]?
The areas of collagen was “Statistically significant increases”.

What about the “areas of new bone” value [1] of the same compound?
Its value is “Statistically significant increases”.

What about the areas of osteoblast [1] of the same compound?
The areas of osteoblast was “Statistically significant increases”.

And the “weight increases in calvarial skull explants” value (FIG. 18)?
The value was “Weight increases”.

Reference: patent publication US20060020036A1, “Methods and compositions to promote bone homestasis” (priority 2004, published 2006)
